The text below walks through data of patent publication US10106556B2, “Heterocyclic compound” (TAKEDA PHARMACEUTICAL COMPANY LIMITED, priority 2015, dated 2018).

The structures appear in SMILES notation.

As usually defined, the inhibition is the change of the read-out against control, counted positive when it falls.

The first experiment concerns the target T1, His-hMAGL (recombinant polyhistidine tagged human MAGL protein) (Homo sapiens, UniProt Q99685).
T1 construct: made in house; host or cells: E. coli BL21(DE3)
T1 sequence (Q99685 1-303): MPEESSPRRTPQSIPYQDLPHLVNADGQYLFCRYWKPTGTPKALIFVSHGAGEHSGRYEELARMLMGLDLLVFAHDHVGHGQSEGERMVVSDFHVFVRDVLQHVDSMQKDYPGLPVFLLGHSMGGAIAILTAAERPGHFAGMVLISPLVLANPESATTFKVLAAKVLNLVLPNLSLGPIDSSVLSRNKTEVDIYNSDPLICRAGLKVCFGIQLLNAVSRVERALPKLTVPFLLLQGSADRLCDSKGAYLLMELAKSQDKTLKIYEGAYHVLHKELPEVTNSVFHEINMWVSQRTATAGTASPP
Description: Measurement of MAGL inhibitory activity (arachidonic acid production from 2-arachidonylglycerol, RapidFire-mass spectrometry). The experiment is classed as biochemical. Particulars: MAGL inhibitory rate at 10 μM test compound; 60 min preincubation with His-hMAGL, 2-arachidonylglycerol substrate, 10 min reaction at room temperature. The gist of the method: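 Inhibition (%) was derived from arachidonic acid levels relative to enzyme-free and compound-free groups. Product was measured by online C4 solid-phase extraction and triple-quadrupole MS in negative SRM mode, corrected by arachidonic acid-d8 (3 μM in the acetonitrile added). Substrate was 2-arachidonylglycerol; enzyme was His-tagged recombinant human MAGL.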
Take `O=C1COc2cc(F)c(C(=O)N3CCC(COC4CCCCC4)CC3)cc2N1` [Example 80, 6-((4-((cyclohexyloxy)methyl)piperidin-1-yl)carbonyl)-7-fluoro-2H-1,4-benzoxazin-3(4H)-one]: the inhibition at 10 µM came to 100%.
On the same count and under the same terms, the result for `O=C1COc2cc(F)c(C(=O)N3CC(COc4ccccc4C4CCCC4)C3)cc2N1` [Example 166, 6-((3-((2-cyclopentylphenoxy)methyl)azetidin-1-yl)carbonyl)-7-fluoro-2H-1,4-benzoxazin-3(4H)-one] reads 98%; that for `CC(C)(C)c1ccccc1OCC1CN(C(=O)c2ccc3c(c2)NC(=O)CO3)C1` [Example 146, 6-((3-((2-tert-butylphenoxy)methyl)azetidin-1-yl)carbonyl)-2H-1,4-benzoxazin-3(4H)-one], 97%; that for `O=C1COc2cc(F)c(C(=O)N3CC(COc4ccccc4-c4ccccc4)C3)cc2N1` [Example 109, 6-((3-((biphenyl-2-yloxy)methyl)azetidin-1-yl)carbonyl)-7-fluoro-2H-1,4-benzoxazin-3(4H)-one], 103%.
The same measure, in the same setting: the result for `O=C1COc2cc(F)c(C(=O)N3CCC(COc4ccc5c(c4)CCCC5)CC3)cc2N1` [Example 284, 7-fluoro-6-((4-((5,6,7,8-tetrahydronaphthalen-2-yloxy)methyl)piperidin-1-yl)carbonyl)-2H-1,4-benzoxazin-3(4H)-one] reads 96%; that for `N#Cc1cc(Cl)ccc1OCC1CN(C(=O)c2cc3c(cc2F)OCC(=O)N3)C1` [Example 119, 5-chloro-2-((1-((7-fluoro-3-oxo-3,4-dihydro-2H-1,4-benzoxazin-6-yl)carbonyl)azetidin-3-yl)methoxy)benzonitrile], 102%; that for `O=C1COc2cc(F)c(C(=O)N3CC(COc4ccccc4C4CC4)C3)cc2N1` [Example 168, 6-((3-((2-cyclopropylphenoxy)methyl)azetidin-1-yl)carbonyl)-7-fluoro-2H-1,4-benzoxazin-3(4H)-one], 101%.
On the same count and under the same terms, the result for `O=C1COc2cc(F)c(C(=O)N3CC(COc4cc(Cl)cc(Cl)c4)C3)cc2N1` [Example 127, 6-((3-((3,5-dichlorophenoxy)methyl)azetidin-1-yl)carbonyl)-7-fluoro-2H-1,4-benzoxazin-3(4H)-one] reads 99%; that for `O=C1COc2cc(F)c(C(=O)N3CC(COc4ccc(N5CC(F)C5)cc4Cl)C3)cc2N1` [Example 291, 6-((3-((2-chloro-4-(3-fluoroazetidin-1-yl)phenoxy)methyl)azetidin-1-yl)carbonyl)-7-fluoro-2H-1,4-benzoxazin-3(4H)-one], 100%; that for `O=C1COc2ncc(C(=O)N3CC(COCc4ccccc4)C3)cc2N1` [Example 14, 7-((3-((benzyloxy)methyl)azetidin-1-yl)carbonyl)-1H-pyrido[2.3-b][1,4]oxazin-2(3H)-one], 80%.
As for `N#Cc1ccccc1COC1CN(C(=O)c2cc3c(cc2F)OCC(=O)N3)C1` [Example 333, 2-(((1-((7-fluoro-3-oxo-3,4-dihydro-2H-1,4-benzoxazin-6-yl)carbonyl)azetidin-3-yl)oxy)methyl) benzonitrile], the inhibition at 10 µM came to 101%.
With `COc1ccc(COC2CN(C(=O)c3cc4c(cc3F)OCC(=O)N4)C2)c(Cl)c1` [Example 347, 6-((3-((2-chloro-4-methoxybenzyl)oxy)azetidin-1-yl)carbonyl)-7-fluoro-2H-1,4-benzoxazin-3(4H)-one], the inhibition at 10 µM was 102%.
The same measure, in the same setting: the result for `O=C1COc2cc(F)c(C(=O)N3CC(COc4cccc5ocnc45)C3)cc2N1` [Example 106, 6-((3-((1,3-benzoxazol-4-yloxy)methyl)azetidin-1-yl)carbonyl)-7-fluoro-2H-1,4-benzoxazin-3(4H)-one] reads 101%; that for `Cc1nc2c(cc1C(=O)N1CCC(COc3ccc(F)cc3Cl)CC1)NC(=O)CO2` [Example 145, 7-((4-((2-chloro-4-fluorophenoxy)methyl)piperidin-1-yl)carbonyl)-6-methyl-1H-pyrido[2,3-b][1,4]oxazin-2(3H)-one], 88%; that for `CC(Oc1cc(F)ccc1F)C1CN(C(=O)c2cc3c(cc2F)OCC(=O)N3)C1` (stereo not shown) [Example 303, 6-((3-(1-(2,5-difluorophenoxy)ethyl)azetidin-1-yl)carbonyl)-7-fluoro-2H-1,4-benzoxazin-3(4H)-one], 103%.
The same measure, in the same setting: the result for `O=C1COc2ccc(C(=O)N3CCC(COc4ccc(Cl)c(Cl)c4)CC3)cc2N1` [Example 43, 6-((4-((3,4-dichlorophenoxy)methyl)piperidin-1-yl)carbonyl)-2H-1,4-benzoxazin-3(4H)-one] reads 100%.
Still for that read-out and setting: the result for `Cc1cc(Cl)ccc1OCC1CN(C(=O)c2cc3c(cc2F)OCC(=O)N3)C1` [Example 226, 6-((3-((4-chloro-2-methylphenoxy)methyl)azetidin-1-yl)carbonyl)-7-fluoro-2H-1,4-benzoxazin-3(4H)-one] reads 101%; that for `CC(Oc1ccc(F)cc1Cl)C1CN(C(=O)c2cc3c(cc2F)OCC(=O)N3)C1` (stereo not shown) [Example 297, 6-((3-(1-(2-chloro-4-fluorophenoxy)ethyl)azetidin-1-yl)carbonyl)-7-fluoro-2H-1,4-benzoxazin-3(4H)-one], 99%.
Consider `O=C1COc2cc(F)c(C(=O)N3CC(COc4ccc(-c5ccc(Cl)cn5)cc4F)C3)cc2N1` [Example 229, 6-((3-((4-(5-chloropyridin-2-yl)-2-fluorophenoxy)methyl)azetidin-1-yl)carbonyl)-7-fluoro-2H-1,4-benzoxazin-3(4H)-one], for which the inhibition at 10 µM worked out at 88%.
The same measure, in the same setting: the result for `O=C1COc2ncc(C(=O)N3CCC(COc4cc(Cl)ccc4Cl)CC3)cc2N1` [Example 18, 7-((4-((2,5-dichlorophenoxy)methyl)piperidin-1-yl)carbonyl)-1H-pyrido[2,3-b][1,4]oxazin-2(3H)-one] reads 100%; that for `O=C1COc2ccc(C(=O)N3CCC(COc4cccc(F)c4Cl)CC3)cc2N1` [Example 56, 6-((4-((2-chloro-3-fluorophenoxy)methyl)piperidin-1-yl)carbonyl)-2H-1,4-benzoxazin-3(4H)-one], 101%.
Still for that read-out and setting: the result for `CN1CC=C(c2ccc(OCC3CN(C(=O)c4cc5c(cc4F)OCC(=O)N5)C3)c(F)c2)CC1` [Example 245, 7-fluoro-6-((3-((2-fluoro-4-(1-methyl-1,2,3,6-tetrahydropyridin-4-yl)phenoxy)methyl)azetidin-1-yl)carbonyl)-2H-1,4-benzoxazin-3(4H)-one] reads 96%; that for `Cc1ccncc1-c1cc(Cl)ccc1OCC1CN(C(=O)c2cc3c(cc2F)OCC(=O)N3)C1` [Example 203, 6-((3-((4-chloro-2-(4-methylpyridin-3-yl)phenoxy)methyl)azetidin-1-yl)carbonyl)-7-fluoro-2H-1,4-benzoxazin-3(4H)-one], 103%; that for `O=C1COc2ccc(C(=O)N3CCC(COc4ccnc(Cl)c4Cl)CC3)cc2N1` [Example 46, 6-((4-(((2,3-dichloropyridin-4-yl)oxy)methyl)piperidin-1-yl)carbonyl)-2H-1,4-benzoxazin-3(4H)-one], 98%.
The same measure, in the same setting: the result for `O=C1COc2cc(F)c(C(=O)N3CC(COc4ccc(-c5ccnc(F)c5)cc4F)C3)cc2N1` [Example 240, 7-fluoro-6-((3-((2-fluoro-4-(2-fluoropyridin-4-yl)phenoxy)methyl)azetidin-1-yl)carbonyl)-2H-1,4-benzoxazin-3(4H)-one] reads 102%.
For the compound `CC(C)c1ccccc1OCC1CN(C(=O)c2cc3c(cc2F)OCC(=O)N3)C1` [Example 160, 7-fluoro-6-((3-((2-isopropylphenoxy)methyl)azetidin-1-yl)carbonyl)-2H-1,4-benzoxazin-3(4H)-one], the inhibition at 10 µM was found to be 100%.
The same measure, in the same setting: the result for `Cc1ccccc1OCC1CCN(C(=O)c2ccc3c(c2)NC(=O)CO3)CC1` [Example 34, 6-((4-((2-methylphenoxy)methyl)piperidin-1-yl)carbonyl)-2H-1,4-benzoxazin-3(4H)-one] reads 98%; that for `Cn1ccc(-c2ccc(OCC3CN(C(=O)c4cc5c(cc4F)OCC(=O)N5)C3)c(F)c2)n1` [Example 252, 7-fluoro-6-((3-((2-fluoro-4-(1-methyl-1H-pyrazol-3-yl)phenoxy)methyl)azetidin-1-yl)carbonyl)-2H-1,4-benzoxazin-3(4H)-one], 99%.
On the same count and under the same terms, the result for `O=C1COc2cc(F)c(C(=O)N3CC(COc4ccc5ccccc5c4)C3)cc2N1` [Example 169, 7-fluoro-6-((3-((2-naphthyloxy)methyl)azetidin-1-yl)carbonyl)-2H-1,4-benzoxazin-3(4H)-one] reads 97%.

Staying with this experiment, now noted: MAGL inhibitory rate at 10 μM test compound; 60 min preincubation with His-hMAGL, 2-arachidonylglycerol substrate, 10 min reaction at room temperature; 10 µM.
`CC(Oc1cc(F)cc(F)c1)C1CN(C(=O)c2cc3c(cc2F)OCC(=O)N3)C1` (stereo not shown) [Example 315, 6-((3-(1-(3,5-difluorophenoxy)ethyl)azetidin-1-yl)carbonyl)-7-fluoro-2H-1,4-benzoxazin-3(4H)-one]: the “% inhibition (10 μM)” value is 102%.
Turning to `CC(Oc1ccc(F)cc1F)C1CN(C(=O)c2cc3c(cc2F)OCC(=O)N3)C1` (stereo not shown) [Example 301, 6-((3-(1-(2,4-difluorophenoxy)ethyl)azetidin-1-yl)carbonyl)-7-fluoro-2H-1,4-benzoxazin-3(4H)-one], the “% inhibition (10 μM)” value is on record as 99%.
